Reference: ChEMBL document CHEMBL1201861, “Genomics of Drug Sensitity in Cancer screening data, Wellcome Trust Sanger Institute”

What follows are compounds tested on CP50-MEL-B (assay: cells). Settings: Homo sapiens, CP50-MEL-B.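 Note: growth inhibition of the human cell line, measured with a cell viability read-out.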
Type: functional, cell-based, Homo sapiens
Description: SANGER: Inhibition of human CP50-MEL-B cell growth in a cell viability assay.
With `C=C(c1ccc(C(=O)O)cc1)c1cc2c(cc1C)C(C)(C)CCC2(C)C` [BEXAROTENE] the IC50 was > 8 µM.

Each compound was assayed on DBTRG-05MG (assay: cells). Settings: Homo sapiens, DBTRG-05MG.
Type: functional, cell-based, Homo sapiens
Description: SANGER: Inhibition of human DBTRG-05MG cell growth in a cell viability assay.
For `C=C(c1ccc(C(=O)O)cc1)c1cc2c(cc1C)C(C)(C)CCC2(C)C` [BEXAROTENE], the IC50 was > 8 µM.

What follows are compounds tested on DK-MG (assay: cells). Settings: Homo sapiens, DK-MG.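 Note: growth inhibition of DK-MG cells, read out with a cell viability assay.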
Type: functional, cell-based, Homo sapiens
Description: SANGER: Inhibition of human DK-MG cell growth in a cell viability assay.
Compound `C=C(c1ccc(C(=O)O)cc1)c1cc2c(cc1C)C(C)(C)CCC2(C)C` [BEXAROTENE] has an IC50 of 0.0512 µM.

Each compound was assayed on DOK (assay: cells). Settings: Homo sapiens, DOK.
Type: functional, cell-based, Homo sapiens
Description: SANGER: Inhibition of human DOK cell growth in a cell viability assay.
For `C=C(c1ccc(C(=O)O)cc1)c1cc2c(cc1C)C(C)(C)CCC2(C)C` [BEXAROTENE], the IC50 was > 8 µM.

What follows are compounds tested on FaDu (assay: cells). Settings: Homo sapiens, FaDu.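 Note: cell viability readout of growth inhibition in FaDu cells.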
Type: functional, cell-based, Homo sapiens
Description: SANGER: Inhibition of human FADU cell growth in a cell viability assay.
For `C=C(c1ccc(C(=O)O)cc1)c1cc2c(cc1C)C(C)(C)CCC2(C)C` [BEXAROTENE], the IC50 was > 8 µM.

Each compound was assayed on HCC38 (assay: cells). Settings: Homo sapiens, HCC38.
Type: functional, cell-based, Homo sapiens
Description: SANGER: Inhibition of human HCC38 cell growth in a cell viability assay.
With `C=C(c1ccc(C(=O)O)cc1)c1cc2c(cc1C)C(C)(C)CCC2(C)C` [BEXAROTENE] the IC50 was > 8 µM.

Each compound was assayed on HOS (assay: cells). Settings: Homo sapiens, HOS.
Type: functional, cell-based, Homo sapiens
Description: SANGER: Inhibition of human HOS cell growth in a cell viability assay.
In the case of `C=C(c1ccc(C(=O)O)cc1)c1cc2c(cc1C)C(C)(C)CCC2(C)C` [BEXAROTENE], the IC50 is reported as > 8 µM.

The compounds below were run on HSC-3 (assay: cells). Settings: Homo sapiens, HSC-3.
Type: functional, cell-based, Homo sapiens
Description: SANGER: Inhibition of human HSC-3 cell growth in a cell viability assay.
In the case of `C=C(c1ccc(C(=O)O)cc1)c1cc2c(cc1C)C(C)(C)CCC2(C)C` [BEXAROTENE], the IC50 is reported as > 8 µM.

The compounds below were run on HT-1080 (assay: cells). Settings: Homo sapiens, HT-1080.
Type: functional, cell-based, Homo sapiens
Description: SANGER: Inhibition of human HT-1080 cell growth in a cell viability assay.
`C=C(c1ccc(C(=O)O)cc1)c1cc2c(cc1C)C(C)(C)CCC2(C)C` [BEXAROTENE] was tested, and the IC50 was > 8 µM.

The compounds below were run on HT-3 (assay: cells). Settings: Homo sapiens, HT-3.
Type: functional, cell-based, Homo sapiens
Description: SANGER: Inhibition of human HT-3 cell growth in a cell viability assay.
`C=C(c1ccc(C(=O)O)cc1)c1cc2c(cc1C)C(C)(C)CCC2(C)C` [BEXAROTENE] was tested, and the IC50 was > 8 µM.

Each compound was assayed on HTC-C3 (assay: cells). Settings: Homo sapiens, HTC-C3.
Type: functional, cell-based, Homo sapiens
Description: SANGER: Inhibition of human HTC-C3 cell growth in a cell viability assay.
With `C=C(c1ccc(C(=O)O)cc1)c1cc2c(cc1C)C(C)(C)CCC2(C)C` [BEXAROTENE] the IC50 was > 8 µM.

Each compound was assayed on J82 (assay: cells). Settings: Homo sapiens, J82.
Type: functional, cell-based, Homo sapiens
Description: SANGER: Inhibition of human J82 cell growth in a cell viability assay.
With `C=C(c1ccc(C(=O)O)cc1)c1cc2c(cc1C)C(C)(C)CCC2(C)C` [BEXAROTENE] the IC50 was > 8 µM.

What follows are compounds tested on MC-IXC (assay: cells). Settings: Homo sapiens, MC-IXC.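 Note: growth inhibition of MC-IXC cells, read out with a cell viability assay.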
Type: functional, cell-based, Homo sapiens
Description: SANGER: Inhibition of human MC-IXC cell growth in a cell viability assay.
`C=C(c1ccc(C(=O)O)cc1)c1cc2c(cc1C)C(C)(C)CCC2(C)C` [BEXAROTENE] gave an IC50 of 7.97 µM.

The compounds below were run on MHH-ES-1 (assay: cells). Settings: Homo sapiens, MHH-ES-1.
Type: functional, cell-based, Homo sapiens
Description: SANGER: Inhibition of human MHH-ES-1 cell growth in a cell viability assay.
In the case of `C=C(c1ccc(C(=O)O)cc1)c1cc2c(cc1C)C(C)(C)CCC2(C)C` [BEXAROTENE], the IC50 is reported as > 8 µM.

These compounds were tested on MKN-1 (assay: cells). Settings: Homo sapiens, MKN-1.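 Note: growth inhibition of human MKN1 cells, read out by a cell viability measurement.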
Type: functional, cell-based, Homo sapiens
Description: SANGER: Inhibition of human MKN1 cell growth in a cell viability assay.
With `C=C(c1ccc(C(=O)O)cc1)c1cc2c(cc1C)C(C)(C)CCC2(C)C` [BEXAROTENE] the IC50 was > 8 µM.

What follows are compounds tested on NCI-H1563 (assay: cells). Settings: Homo sapiens, NCI-H1563.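 Note: growth inhibition of human NCI-H1563 cells, read out with a cell viability assay.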
Type: functional, cell-based, Homo sapiens
Description: SANGER: Inhibition of human NCI-H1563 cell growth in a cell viability assay.
For `C=C(c1ccc(C(=O)O)cc1)c1cc2c(cc1C)C(C)(C)CCC2(C)C` [BEXAROTENE], the IC50 was > 8 µM.

What follows are compounds tested on NCI-H2052 (assay: cells). Settings: Homo sapiens, NCI-H2052.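 Note: growth inhibition of NCI-H2052 cells, read out with a cell viability assay.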
Type: functional, cell-based, Homo sapiens
Description: SANGER: Inhibition of human NCI-H2052 cell growth in a cell viability assay.
With `C=C(c1ccc(C(=O)O)cc1)c1cc2c(cc1C)C(C)(C)CCC2(C)C` [BEXAROTENE] the IC50 was > 8 µM.

Each compound was assayed on NCI-H2081 (assay: cells). Settings: Homo sapiens, NCI-H2081.
Type: functional, cell-based, Homo sapiens
Description: SANGER: Inhibition of human NCI-H2081 cell growth in a cell viability assay.
In the case of `C=C(c1ccc(C(=O)O)cc1)c1cc2c(cc1C)C(C)(C)CCC2(C)C` [BEXAROTENE], the IC50 is reported as > 8 µM.

The compounds below were run on NCI-H292 (assay: cells). Settings: Homo sapiens, NCI-H292.
Type: functional, cell-based, Homo sapiens
Description: SANGER: Inhibition of human NCI-H292 cell growth in a cell viability assay.
For `C=C(c1ccc(C(=O)O)cc1)c1cc2c(cc1C)C(C)(C)CCC2(C)C` [BEXAROTENE], the IC50 was > 8 µM.

What follows are compounds tested on PANC-08-13 (assay: cells). Settings: Homo sapiens, PANC-08-13.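 Note: cell growth inhibition, measured with a cell viability assay.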
Type: functional, cell-based, Homo sapiens
Description: SANGER: Inhibition of human PANC-08-13 cell growth in a cell viability assay.
With `C=C(c1ccc(C(=O)O)cc1)c1cc2c(cc1C)C(C)(C)CCC2(C)C` [BEXAROTENE] the IC50 was > 8 µM.

What follows are compounds tested on RT-112 (assay: cells). Settings: Homo sapiens, RT-112.
Type: functional, cell-based, Homo sapiens
Description: SANGER: Inhibition of human RT-112 cell growth in a cell viability assay.
`C=C(c1ccc(C(=O)O)cc1)c1cc2c(cc1C)C(C)(C)CCC2(C)C` [BEXAROTENE] was tested, and the IC50 was > 8 µM.

The compounds below were run on SK-MM-2 (assay: cells). Settings: Homo sapiens, SK-MM-2.
Type: functional, cell-based, Homo sapiens
Description: SANGER: Inhibition of human SK-MM-2 cell growth in a cell viability assay.
In the case of `C=C(c1ccc(C(=O)O)cc1)c1cc2c(cc1C)C(C)(C)CCC2(C)C` [BEXAROTENE], the IC50 is reported as > 8 µM.

The compounds below were run on SNU-387 (assay: cells). Settings: Homo sapiens, SNU-387.
Type: functional, cell-based, Homo sapiens
Description: SANGER: Inhibition of human SNU-387 cell growth in a cell viability assay.
`C=C(c1ccc(C(=O)O)cc1)c1cc2c(cc1C)C(C)(C)CCC2(C)C` [BEXAROTENE] was tested, and the IC50 was > 8 µM.

These compounds were tested on SR (assay: cells). Settings: Homo sapiens, SR.
Type: functional, cell-based, Homo sapiens
Description: SANGER: Inhibition of human SR cell growth in a cell viability assay.
`C=C(c1ccc(C(=O)O)cc1)c1cc2c(cc1C)C(C)(C)CCC2(C)C` [BEXAROTENE] was tested, and the IC50 was > 8 µM.

These compounds were tested on SW1783 (assay: cells). Settings: Homo sapiens, SW1783.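 Note: cell growth inhibition measured with a viability assay.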
Type: functional, cell-based, Homo sapiens
Description: SANGER: Inhibition of human SW1783 cell growth in a cell viability assay.
In the case of `C=C(c1ccc(C(=O)O)cc1)c1cc2c(cc1C)C(C)(C)CCC2(C)C` [BEXAROTENE], the IC50 is reported as > 8 µM.

The compounds below were run on SW837 (assay: cells). Settings: Homo sapiens, SW837.
Type: functional, cell-based, Homo sapiens
Description: SANGER: Inhibition of human SW837 cell growth in a cell viability assay.
With `C=C(c1ccc(C(=O)O)cc1)c1cc2c(cc1C)C(C)(C)CCC2(C)C` [BEXAROTENE] the IC50 was > 8 µM.

The compounds below were run on 786-0 (assay: cells). Settings: Homo sapiens.
Type: functional, cell-based, Homo sapiens
Description: SANGER: Inhibition of human 786-0 cell growth in a cell viability assay.
`C=C(c1ccc(C(=O)O)cc1)c1cc2c(cc1C)C(C)(C)CCC2(C)C` [BEXAROTENE] was tested, and the IC50 was > 8 µM.

The compounds below were run on A204 (assay: cells). Settings: Homo sapiens, A204.
Type: functional, cell-based, Homo sapiens
Description: SANGER: Inhibition of human A204 cell growth in a cell viability assay.
With `C=C(c1ccc(C(=O)O)cc1)c1cc2c(cc1C)C(C)(C)CCC2(C)C` [BEXAROTENE] the IC50 was > 8 µM.

These compounds were tested on A2058 (assay: cells). Settings: Homo sapiens, A2058.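 Note: reduction of A2058 cell growth, read out with a viability assay.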
Type: functional, cell-based, Homo sapiens
Description: SANGER: Inhibition of human A2058 cell growth in a cell viability assay.
For `C=C(c1ccc(C(=O)O)cc1)c1cc2c(cc1C)C(C)(C)CCC2(C)C` [BEXAROTENE], the IC50 was > 8 µM.

The compounds below were run on A-431 (assay: cells). Settings: Homo sapiens, A-431.
Type: functional, cell-based, Homo sapiens
Description: SANGER: Inhibition of human A431 cell growth in a cell viability assay.
With `C=C(c1ccc(C(=O)O)cc1)c1cc2c(cc1C)C(C)(C)CCC2(C)C` [BEXAROTENE] the IC50 was > 8 µM.

These compounds were tested on ABC-1 (assay: cells). Settings: Homo sapiens, ABC-1.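 Note: growth inhibition of human ABC-1 cells, read out by a cell viability assay.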
Type: functional, cell-based, Homo sapiens
Description: SANGER: Inhibition of human ABC-1 cell growth in a cell viability assay.
For `C=C(c1ccc(C(=O)O)cc1)c1cc2c(cc1C)C(C)(C)CCC2(C)C` [BEXAROTENE], the IC50 was > 8 µM.

What follows are compounds tested on AN3-CA (assay: cells). Settings: Homo sapiens, AN3-CA.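 Note: growth inhibition of human AN3-CA cells measured by a cell viability assay.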
Type: functional, cell-based, Homo sapiens
Description: SANGER: Inhibition of human AN3-CA cell growth in a cell viability assay.
With `C=C(c1ccc(C(=O)O)cc1)c1cc2c(cc1C)C(C)(C)CCC2(C)C` [BEXAROTENE] the IC50 was > 8 µM.

What follows are compounds tested on BCPAP (assay: cells). Settings: Homo sapiens, BCPAP.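 Note: growth inhibition of BCPAP cells, read out in a cell viability assay.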
Type: functional, cell-based, Homo sapiens
Description: SANGER: Inhibition of human BCPAP cell growth in a cell viability assay.
With `C=C(c1ccc(C(=O)O)cc1)c1cc2c(cc1C)C(C)(C)CCC2(C)C` [BEXAROTENE] the IC50 was > 8 µM.

These compounds were tested on BHY (assay: cells). Settings: Homo sapiens, BHY.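 Note: cell growth inhibition read out by a viability assay.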
Type: functional, cell-based, Homo sapiens
Description: SANGER: Inhibition of human BHY cell growth in a cell viability assay.
In the case of `C=C(c1ccc(C(=O)O)cc1)c1cc2c(cc1C)C(C)(C)CCC2(C)C` [BEXAROTENE], the IC50 is reported as > 8 µM.

These compounds were tested on BOKU (assay: cells). Settings: Homo sapiens, BOKU.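 Note: growth inhibition of the human BOKU cell line, read out by a cell viability assay.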
Type: functional, cell-based, Homo sapiens
Description: SANGER: Inhibition of human BOKU cell growth in a cell viability assay.
With `C=C(c1ccc(C(=O)O)cc1)c1cc2c(cc1C)C(C)(C)CCC2(C)C` [BEXAROTENE] the IC50 was > 8 µM.

These compounds were tested on BT-20 (assay: cells). Settings: Homo sapiens, BT-20.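 Note: cell viability assay measuring suppression of growth in human BT-20 cells.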
Type: functional, cell-based, Homo sapiens
Description: SANGER: Inhibition of human BT-20 cell growth in a cell viability assay.
With `C=C(c1ccc(C(=O)O)cc1)c1cc2c(cc1C)C(C)(C)CCC2(C)C` [BEXAROTENE] the IC50 was > 8 µM.

The compounds below were run on C-33-A (assay: cells). Settings: Homo sapiens, C-33-A.
Type: functional, cell-based, Homo sapiens
Description: SANGER: Inhibition of human C-33-A cell growth in a cell viability assay.
`C=C(c1ccc(C(=O)O)cc1)c1cc2c(cc1C)C(C)(C)CCC2(C)C` [BEXAROTENE] was tested, and the IC50 was > 8 µM.

The compounds below were run on CAL-148 (assay: cells). Settings: Homo sapiens, CAL-148.
Type: functional, cell-based, Homo sapiens
Description: SANGER: Inhibition of human CAL-148 cell growth in a cell viability assay.
`C=C(c1ccc(C(=O)O)cc1)c1cc2c(cc1C)C(C)(C)CCC2(C)C` [BEXAROTENE] was tested, and the IC50 was > 8 µM.

Each compound was assayed on TUR (assay: cells). Settings: Homo sapiens, TUR.
Type: functional, cell-based, Homo sapiens
Description: SANGER: Inhibition of human TUR cell growth in a cell viability assay.
`C=C(c1ccc(C(=O)O)cc1)c1cc2c(cc1C)C(C)(C)CCC2(C)C` [BEXAROTENE] was tested, and the IC50 was > 8 µM.

Each compound was assayed on UACC-893 (assay: cells). Settings: Homo sapiens, UACC-893.
Type: functional, cell-based, Homo sapiens
Description: SANGER: Inhibition of human UACC-893 cell growth in a cell viability assay.
In the case of `C=C(c1ccc(C(=O)O)cc1)c1cc2c(cc1C)C(C)(C)CCC2(C)C` [BEXAROTENE], the IC50 is reported as > 8 µM.

Each compound was assayed on VMRC-RCZ (assay: cells). Settings: Homo sapiens, VMRC-RCZ.
Type: functional, cell-based, Homo sapiens
Description: SANGER: Inhibition of human VMRC-RCZ cell growth in a cell viability assay.
`C=C(c1ccc(C(=O)O)cc1)c1cc2c(cc1C)C(C)(C)CCC2(C)C` [BEXAROTENE] was tested, and the IC50 was > 8 µM.

These compounds were tested on YT (assay: cells). Settings: Homo sapiens, YT.
Type: functional, cell-based, Homo sapiens
Description: SANGER: Inhibition of human YT cell growth in a cell viability assay.
For `C=C(c1ccc(C(=O)O)cc1)c1cc2c(cc1C)C(C)(C)CCC2(C)C` [BEXAROTENE], the IC50 was > 8 µM.

What follows are compounds tested on CHL-1 (assay: cells). Settings: Homo sapiens, CHL-1.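 Note: cell growth inhibition, read out with a cell viability assay.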
Type: functional, cell-based, Homo sapiens
Description: SANGER: Inhibition of human CHL-1 cell growth in a cell viability assay.
With `C=C(c1ccc(C(=O)O)cc1)c1cc2c(cc1C)C(C)(C)CCC2(C)C` [BEXAROTENE] the IC50 was > 8 µM.

These compounds were tested on COLO-679 (assay: cells). Settings: Homo sapiens, COLO-679.
Type: functional, cell-based, Homo sapiens
Description: SANGER: Inhibition of human COLO-679 cell growth in a cell viability assay.
In the case of `C=C(c1ccc(C(=O)O)cc1)c1cc2c(cc1C)C(C)(C)CCC2(C)C` [BEXAROTENE], the IC50 is reported as > 8 µM.

The compounds below were run on COLO-680N (assay: cells). Settings: Homo sapiens, COLO-680N.
Type: functional, cell-based, Homo sapiens
Description: SANGER: Inhibition of human COLO-680N cell growth in a cell viability assay.
`C=C(c1ccc(C(=O)O)cc1)c1cc2c(cc1C)C(C)(C)CCC2(C)C` [BEXAROTENE] was tested, and the IC50 was > 8 µM.
